Assay results taken from US20030036564A1, “Control of lyme disease spirochete” (priority 2001, published 2003).

Test system: Borrelia burgdorferi strain B31
Test: Antibiotic bait diet fed no-choice for seven days to mice infected with Lyme disease spirochete; ear punch biopsy culture and dark field microscopy
Assay type: in vivo, laboratory mice (Swiss-Webster)
Details: ear punch biopsy culture, dark field microscopy
Protocol: The diet compositions described in Examples 1-3 were fed separately on a no-choice basis to separate groups of laboratory mice (Swiss-Webster) infected with the Lyme disease spirochete Borrelia burgdorferi. […]. The mice had all been previously infected with B. burgdorferi strain B31 by subcutaneous injection followed by a minimum 21-day incubation period. To confirm that the mice were positive for the spirochete, a modified ear punch biopsy was performed (Sinsky and Piesman, 1989, J. of Clin. Micro. 27:1723-1727, CDC 1997) on each mouse and the biopsy incubated in a modified BSK-H media for 7 days and viewed under dark field microscopy. The prepared diets were fed to individually housed mice on a no-choice basis and water was offered ad libitum. Consumption was recorded each day and additional feed was added. Diet was presented to the mice for seven consecutive days. On the day following the last day feed was offered, mice were anesthetized with Halothane and ear punch biopsy was performed. The biopsies were incubated in modified BSK-H media for seven days at 34±1° C. Dark field microscopy was then performed on an American Optics 1031 microscope with an American Optics dark field 1096 condenser to determine the presence of spirochetes. Cultures were considered positive if spirochete growth occurred within five weeks of inoculation (Wilske and Preac-Mursic, Aspects of Lyme Borreliosis, Springer-Verlag, New York 1993), viewing the cultures at seven-day increments. A slide was considered negative if no spirochetes were found after searching 100 fields at 400× (Ginsberg and Ewing, J. of Med. Entomology, 26: 183-189, 1989).

[1] = Treatment level 1, chloramphenicol 500 μg/g bait
[2] = Treatment level 2, chloramphenicol 1000 μg/g bait
[3] = Treatment level 3, thiamphenicol 1000 μg/g bait

For `O=C(N[C@H](CO)[C@H](O)c1ccc([N+](=O)[O-])cc1)C(Cl)Cl` [CHLORAMPHENICOL, chloramphenicol], the “NUMBER OF MICE TESTING NEGATIVE FOR SPIROCHETE” value [1] was 10/10, the “PERCENTAGE OF MICE TESTING NEGATIVE FOR SPIROCHETE” value [1] was “(100%)” and the “NUMBER OF MICE TESTING NEGATIVE FOR SPIROCHETE” value [2] was 10/10. For the same compound, the “PERCENTAGE OF MICE TESTING NEGATIVE FOR SPIROCHETE” value [2] was “(100%)”.

`CS(=O)(=O)c1ccc([C@@H](O)[C@@H](CO)NC(=O)C(Cl)Cl)cc1` [THIAMPHENICOL, thiamphenicol] was tested, and the “NUMBER OF MICE TESTING NEGATIVE FOR SPIROCHETE” value [3] was 10/10 and the “PERCENTAGE OF MICE TESTING NEGATIVE FOR SPIROCHETE” value [3] was “(100%)”.
